Data: publication PMC7281206, “Cysteine Cathepsins Inhibition Affects Their Expression and Human Renal Cancer Cell Phenotype” (Cancers, 2020)

What was measured:
769-P cells = test: Cell viability with paclitaxel (MTT), 769-P; type: cell-based, human; conditions: PXT alone, 100 nM, 72 h
Experimental: (§1) To evaluate the inhibitory properties of the peptides directly on the human renal cancer cells, we firstly assessed the impact of Ac-PLVE-FMK and Ac-VLPE-FMK on the cell viability of 769-P and A498 cells to determine the working concentrations for further experiments. […] Further experiments were performed using a concentration of 20 μM. To understand if the peptides could affect the activity of caspase proteases, we tested their effect on cell viability in combination with the chemotherapeutic paclitaxel (PXT) in both the cell lines. […] Next, we evaluated the effect of the peptides on renal cancer cell proteolytic activity against the fluorogenic probe Ac-PLVQ-AMC. In this case, 769-p and A498 cells were treated for 30 min with Ac-PLVE-FMK or Ac-VLPE-FMK and were then exposed for 10 min to the substrate Ac-PLVQ-AMC prior fluorescence microscopy analysis (Figure 3c,d).
(§2) The cell number was evaluated by counting viable cells using the MTT (3-(4,5-dimethylthiazol-2-yl)-2,5-diphenyltetrazolium bromide) colorimetric assay. A total of 2 × 10^4 cells/well were seeded on independent 96-well plates for each time point (0, 24, 48, and 72 h), with five replicates and treated with two inhibitors (2.5–250 μM). Then, 10 µL of the MTT reagent was added to each well, and cells were incubated for another 5 h. Next, the absorbance value was measured using a CLARIOstar® Plus plate reader (BMG Labtech, Ortenberg, Germany) at 490 nm. Triplicate wells were assayed, and S.D.s were determined.
Figure S3. Combined effect of PXT and the inhibitors on 769‐P proliferation: 769‐P cells were treated with 100 nM of PXT alone or in combination with 20 μM of Ac‐PLVE and Ac‐VLPE and cell proliferation was measured after 24, 48, and 72 h via MTT assay. Data represent the mean (± S.D.) of three independent experiments, each performed in triplicate.
Figure S4. Spheroids size and circularity: (a,b) size and circularity of 769‐P and (c,d) A498 cells upon treatment with Ac‐PLVE‐FMK and Ac‐VLPE‐FMK. Data represent the mean (± S.D.) of three independent experiments, each performed in triplicate. […]

A498 cells = test: Cell mortality with paclitaxel, A498; type: cell-based, human; conditions: PXT alone (data not shown)
Experimental: as §1
as §2, with “Then, 10 µL of the MTT reagent was added to each well, and cells were incubated for another 5 h.” left out

human recombinant CtsB = test: Fluorescent protease activity assay, recombinant CtsB; type: biochemical; conditions: 20 nM CtsB, 50 μM substrate, no inhibitor
Experimental: (§3) Ac-PLVE-FMK and Ac-VLPE-FMK inhibitory properties were evaluated against human recombinant CtsL and B. These recombinant enzymes were expressed in E. coli via plasmid transformation and further purification, using nickel-nitrilotriacetic acid (Ni-NTA) sepharose. Gel zymography assay was used to provide a preliminary evaluation of the ability of these recombinant proteins to degrade the gelatin substrate previously embedded in the gel (Supplementary Figure S1). Following Coomassie staining, the Cts were detectable as single bands. As expected, a translucent area was evident, due to the substrate digestion in the proximity of the proteins. Then, the recombinant proteins were tested for their ability to digest the Triticain-α substrate Ac-PLVQ via fluorescent protease activity assay, previously optimized by our group. This probe was conjugated with the fluorogenic chromophore 7-amino-4-methylcoumarin (Ac-PLVQ-AMC). After proteolytic cleavage, it emits a detectable fluorescent signal.
(§4) Total RNA extract from retinoblastoma […] cells was used to obtain cDNA. A pair of oligonucleotides ([…] and […]) was used for the amplification of DNA fragment containing CtsB, the product of which was ligated into pET15b (Merck Millipore, Billerica, MA, USA) using NdeI and XhoI. DNA fragment containing CtsL was amplified using a pair of oligonucleotides ([…] and […]) and ligated into pET28a (+) (Merck Millipore, Billerica, MA, USA) using NheI and HindIII. […]
(§5) The activity of recombinant CtsL and B was detected by the hydrolysis of the fluorogenic substrate Ac-Pro-Leu-Val-Gln- 7-amino-4-methylcoumarin (AMC) (Pepmic Suzhou Jiangsu, China). […] The substrate was added to a final concentration of 50 μM, and its hydrolysis was continuously measured for 12 min using a CLARIOstar® Plus plate reader (BMG Labtech Ortenberg Baden-Württemberg, Germany) at excitation and emission wavelengths of 353 and 442 nm, respectively.

human recombinant CtsL = test: Fluorescent protease activity assay, recombinant CtsL; type: biochemical; conditions: 20 nM CtsL, 50 μM substrate, no inhibitor
Experimental: as §3, §4, §5

pancreatic cells = conditions: 48 and 72 h; ref [58]; cited from earlier work
From the text: In general, Cts inhibitors cannot be considered very potent cytostatic molecules. H ...

CC(=O)O[C@H]1C(=O)[C@@]2(C)[C@H]([C@H](OC(=O)c3ccccc3)[C@]3(O)C[C@H](OC(=O)[C@H](O)[C@@H](NC(=O)c4ccccc4)c4ccccc4)C(C)=C1C3(C)C)[C@]1(OC(C)=O)CO[C@@H]1C[C@@H]2O [PXT, paclitaxel, reference compound]
Ability to kill cancer cells (769-P cells): the ability of the PXT to kill cancer cells was evident after 72 h of treatment at a concentration of 100 nM | Cell mortality (A498 cells): did not result in high mortality

Ac-Pro-Leu-Val-Gln- 7-amino-4-methylcoumarin (AMC) [Ac-PLVQ-AMC, fluorogenic Triticain-α substrate conjugated with 7-amino-4-methylcoumarin, reference compound]
Substrate cleavage (human recombinant CtsB): able to cleave the probe | Substrate cleavage (human recombinant CtsL): able to cleave the probe

CC(C)C[C@H](NC(=O)[C@H]1O[C@@H]1C(=O)O)C(=O)NCCCCN=C(N)N [E64]
Cytotoxic effect (pancreatic cells): only a moderated cytotoxic effect, which reached a plateau phase after 48 and 72 h
